{
  "source": "patent US6783539B1",
  "about": "“Phototriggerable, collagen-crosslinking compounds for wound closure” (University of Kansas Medical Center, priority 2001, dated 2004)",
  "assay": "Photoactivated welding of rabbit Achilles tendon pieces, tensile strength by tensiometer",
  "settings": "mixture of 1.2 M DPD and 1.2 M DEDA in DMSO between two tendon pieces, 2 W, 500 sec (1,000 J)",
  "description": "A rabbit Achilles tendon, previously stored at −70° C., was dissected from the remaining muscle, cleaned of fascia and muscle, and divided in half along its length.\nOne tendon piece was placed diagonally on a fused silica (UV transparent) glass slide and several drops of the mixture was placed in the center of the tendon piece. The other tendon piece was placed on top, forming an “X” shape with the mixture in between the two pieces at their intersection. Another identical slide was placed on top and light pressure was applied to the two slides.\nThe tendons and slides were then placed beneath a liquid light guide that delivered light from a filtered mercury-arc light source (320-500 nm, 2 W) and exposed for 500 sec (1,000 J).\nAfter light exposure, the tendons were removed from the slide and placed on an illuminated grid beneath a CCD camera with a macro lens. An image of the overlapped (i.e. “welded”) area was digitized and stored. Measurement of the overlapped area was made using standard computer software.\nThe welded tendon was then placed in a tensiometer to measure tensile strength. One tendon end was clamped and attached to a strain gauge, while the opposite end of the other tendon clamped to a block moved by a lead screw.\nThe maximum force tolerated by the bonded tendon before breaking was divided by the bonded area to calculate the Maximum Stress in Newtons/cm^2.",
  "data": [
    {"smiles": "[N-]=[N+]=CC(=O)C(=O)NCCOCCOCCNC(=O)C(=O)C=[N+]=[N-]", "note": "[DPD, N,N′-bis(3-diazapynivoyl)-2,2′-(ethylenedioxy)bis(ethylamine)]", "values": [
      {"measurement": "Observation of tendon welding after light exposure", "setting": "320-500 nm", "result": "welded together"},
      {"measurement": "Maximum Stress (maximum force tolerated by the bonded tendon before breaking divided by the bonded area)", "setting": "filtered mercury-arc light 320-500 nm", "result": 31.7, "unit": "N/cm^2"}
    ]}
  ]
}
